Measurements published in patent publication EP0942911B1, “BENZOPYRANOPYRROLE AND BENZOPYRANOPYRIDINE ALPHA-1 ADRENERGIC COMPOUNDS” (Abbott Laboratories, priority 1996, dated 1998).
Where a name gives a salt, the structure may show the parent alone.

What was measured:
Experiment in all cases: biochemical
[1] = molecular target: T1, α-1A adrenoreceptor (rat submaxillary gland) (Rattus norvegicus, UniProt P43140); assay type: binding; details: [3H]-prazosin radioligand; rat submaxillary gland membranes; read-out: Radioligand Binding (Ki, nM) 1A (Rat)
T1 sequence (P43140 1-466): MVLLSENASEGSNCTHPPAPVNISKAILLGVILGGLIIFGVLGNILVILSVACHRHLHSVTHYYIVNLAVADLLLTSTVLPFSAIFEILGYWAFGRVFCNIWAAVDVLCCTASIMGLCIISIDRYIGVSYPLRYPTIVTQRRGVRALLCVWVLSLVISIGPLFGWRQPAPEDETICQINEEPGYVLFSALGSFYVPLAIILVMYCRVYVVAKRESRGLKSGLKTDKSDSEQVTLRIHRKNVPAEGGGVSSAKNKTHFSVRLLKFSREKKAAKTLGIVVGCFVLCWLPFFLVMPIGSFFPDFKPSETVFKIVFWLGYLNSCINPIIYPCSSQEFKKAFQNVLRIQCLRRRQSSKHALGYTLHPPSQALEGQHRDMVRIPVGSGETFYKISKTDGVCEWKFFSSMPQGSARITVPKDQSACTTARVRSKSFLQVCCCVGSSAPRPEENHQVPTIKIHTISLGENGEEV
Outline: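 Radioligand binding to α-1A sites in membrane homogenates of rat submaxillary gland, run after Greengrass and Bremner. Bound radioactivity counted by liquid scintillation.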

[2] = molecular target: T2, α-1a adrenoreceptor (Bos taurus, UniProt P18130); assay type: binding, bovine; details: [3H]-prazosin radioligand; cloned receptor in LTK cell membranes; read-out: Radioligand Binding (Ki, nM) 1a (Bovine)
T2 sequence (P18130 1-466): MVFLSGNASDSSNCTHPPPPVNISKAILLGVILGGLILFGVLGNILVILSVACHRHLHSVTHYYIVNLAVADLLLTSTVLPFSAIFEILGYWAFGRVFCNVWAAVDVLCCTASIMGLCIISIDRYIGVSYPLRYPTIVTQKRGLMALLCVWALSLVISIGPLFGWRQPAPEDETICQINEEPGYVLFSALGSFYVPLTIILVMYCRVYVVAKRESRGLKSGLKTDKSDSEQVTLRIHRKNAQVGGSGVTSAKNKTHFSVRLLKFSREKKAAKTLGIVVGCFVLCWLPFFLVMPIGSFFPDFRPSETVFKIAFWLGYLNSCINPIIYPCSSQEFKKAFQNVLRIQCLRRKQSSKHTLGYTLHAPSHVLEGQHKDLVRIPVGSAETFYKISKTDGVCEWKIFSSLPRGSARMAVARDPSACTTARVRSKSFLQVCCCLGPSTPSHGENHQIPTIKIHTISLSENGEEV
Outline: (§1)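 Affinities are from radioligand binding on membranes of mouse LTK fibroblast clones stably expressing each cloned α-1 subtype; rat submaxillary gland served as native α-1A tissue.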

[3] = molecular target: T3, α-1b adrenoreceptor (Mesocricetus auratus, UniProt P18841); assay type: binding, hamster; details: [3H]-prazosin radioligand; cloned receptor in LTK cell membranes; read-out: Radioligand Binding (Ki, nM) 1b (Hamster)
T3 sequence (P18841 1-515): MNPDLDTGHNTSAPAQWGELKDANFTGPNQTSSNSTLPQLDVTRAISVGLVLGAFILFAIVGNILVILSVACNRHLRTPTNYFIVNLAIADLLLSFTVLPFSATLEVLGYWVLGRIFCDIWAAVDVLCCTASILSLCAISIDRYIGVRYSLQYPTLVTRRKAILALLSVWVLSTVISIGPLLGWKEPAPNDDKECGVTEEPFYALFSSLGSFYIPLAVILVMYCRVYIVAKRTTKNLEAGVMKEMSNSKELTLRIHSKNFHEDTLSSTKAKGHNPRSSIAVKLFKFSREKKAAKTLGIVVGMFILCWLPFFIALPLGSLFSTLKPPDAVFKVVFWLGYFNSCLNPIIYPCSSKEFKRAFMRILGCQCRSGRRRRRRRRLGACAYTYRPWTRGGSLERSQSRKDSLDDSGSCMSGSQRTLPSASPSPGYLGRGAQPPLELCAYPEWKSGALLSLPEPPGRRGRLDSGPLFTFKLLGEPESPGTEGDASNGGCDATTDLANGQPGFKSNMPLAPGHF
Outline: as §1

[4] = molecular target: T4, α-1d adrenoreceptor (Rattus norvegicus, UniProt P23944); assay type: binding; details: [3H]-prazosin radioligand; cloned receptor in LTK cell membranes; read-out: Radioligand Binding (Ki, nM) 1d (Rat)
T4 sequence (P23944 1-561): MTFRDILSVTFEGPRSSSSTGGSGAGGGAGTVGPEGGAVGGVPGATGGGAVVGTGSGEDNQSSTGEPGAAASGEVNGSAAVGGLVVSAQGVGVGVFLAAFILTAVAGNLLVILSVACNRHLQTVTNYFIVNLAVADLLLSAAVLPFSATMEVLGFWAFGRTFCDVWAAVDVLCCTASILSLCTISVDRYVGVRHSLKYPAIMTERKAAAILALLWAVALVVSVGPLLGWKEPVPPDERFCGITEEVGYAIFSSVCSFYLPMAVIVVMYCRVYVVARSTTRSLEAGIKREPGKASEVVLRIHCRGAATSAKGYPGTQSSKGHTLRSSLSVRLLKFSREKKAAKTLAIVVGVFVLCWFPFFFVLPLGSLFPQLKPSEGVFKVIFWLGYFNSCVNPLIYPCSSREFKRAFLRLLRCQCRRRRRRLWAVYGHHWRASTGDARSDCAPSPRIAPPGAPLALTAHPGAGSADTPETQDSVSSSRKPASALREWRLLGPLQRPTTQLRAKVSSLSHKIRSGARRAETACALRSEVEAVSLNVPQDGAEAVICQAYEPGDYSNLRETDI
Outline: as §1

Molecule | Ki [1] [nM] | Ki [2] [nM] | Ki [3] [nM] | Ki [4] [nM]
COc1cccc2c1[C@H]1CN(CCCCn3c(=O)[nH]c4c(sc5ncc(-c6ccccc6)nc54)c3=O)C[C@@H]1CO2 [Example 9, 3-[4-((3aR,9bS)-trans-9-Methoxy-1,2,3,3a,4,9b-hexahydro-[1]-benzopyrano[3,4-c]pyrrol-2-yl)butyl]-8-phenyl-pyrazino[2',3':4,5]thieno[3,2-d]pyrimidine-2,4(1H,3H)-dione hydrochloride] | 2.27 | 0.325 | 17.8 | 1.55
COc1cccc2c1[C@@H]1CN(CCCCn3c(=O)[nH]c4c(sc5ccccc54)c3=O)C[C@H]1CO2 [Example 21, 3-[4-((3aS,9bR)-trans-9-Methoxy-1,2,3,3a,4,9b-hexahydro-[1]-benzopyrano[3,4-c]pyrrol-2-yl)butyl]-[1]benzthieno[3,2-d]pyrimidine-2,4(1H,3H)-dione hydrochloride] | 0.03 | 0.018 | 0.326 | 0.03
COc1cccc2c1[C@@H]1CN(CCCCn3c(=O)[nH]c4c(sc5c(Cl)ccnc54)c3=O)C[C@H]1CO2 [Example 19, 3-[4-((3aS,9bR)-trans-9-Methoxy-1,2,3,3a,4,9b-hexahydro-[1]-benzopyrano[3,4-c]pyrrol-2-yl)butyl]-6-chloro-pyrido[2',3':4,5]thieno[3,2-d]pyrimidine-2,4(1H,3H)-dione hydrochloride] | 0.059 | 0.025 | 1.13 | 0.108
COc1cccc2c1[C@H]1CN(CCCCn3c(=O)[nH]c4c(sc5c(OC)ccnc54)c3=O)C[C@@H]1CO2 [Example 8, 3-[4-((3aR,9bS)-trans-9-Methoxy-1,2,3,3a,4,9b-hexahydro-[1]-benzopyrano[3,4-c]pyrrol-2-yl)butyl]-6-methoxy-pyrido[2',3':4,5]thieno[3,2-d]pyrimidine-2,4(1H,3H)-dione dihydrochloride] | 0.762 | 0.362 | 4.19 | 1.42
COc1cnc2sc3c(=O)n(CCCCN4CC[C@H]5c6c(OC)cccc6OC[C@@H]5C4)c(=O)[nH]c3c2n1 [Example 99, 3-[4-((4aS,10bR)-trans-10-Methoxy-1,3,4,4a,5,10b-hexahydro-2H-[1]-benzopyrano[3,4-c]pyrido-3-yl)butyl]-8-methoxy-pyrazino[2',3':4,5]thieno[3,2-d]pyrimidine-2,4(1H,3H)-dione hydrochloride] | 14.9 | 1.73 | 57.1 | 5.81
COc1cccc2c1[C@H]1CN(CCCCn3c(=O)[nH]c4c(sc5c(Cl)ccnc54)c3=O)C[C@@H]1CO2 [Example 5, 3-[4-((3aR,9bS)-trans-9-Methoxy-1,2,3,3a,4,9b-hexahydro-[1]-benzopyrano[3,4-c]pyrrol-2-yl)butyl]-6-chloro-pyrido[2',3':4,5]thieno[3,2-d]pyrimidine-2,4(1H,3H)-dione dihydrochloride] | 0.268 | 0.086 | 2.01 | 0.638
COc1cccc2c1[C@H]1CCN(CCCCn3c(=O)[nH]c4c(sc5ncc(Cl)nc54)c3=O)C[C@@H]1CO2 [Example 96, 3-[4-((4aR,10bS)-trans-10-Methoxy-1,3,4,4a,5,10b-hexahydro-2H-[1]-benzopyrano[3,4-c]pyrido-3-yl)butyl]-8-chloro-pyrazino[2',3':4,5]thieno[3,2-d]pyrimidine-2,4(1H,3H)-dione dihydrochloride] | 0.816 | 0.211 | 10.4 | 0.816
COc1cccc2c1[C@@H]1CN(CCCCn3c(=O)[nH]c4c(sc5ccc(-c6cccnc6)nc54)c3=O)C[C@H]1CO2 [Example 58, 3-[4-((3aS,9bR)-trans-9-Methoxy-1,2,3,3a,4,9b-hexahydro-[1]-benzopyrano[3,4-c]pyrrol-2-yl)butyl]-8-(3-pyridyl)-pyrido[2',3':4,5]thieno[3,2-d]pyrimidine-2,4(1H,3H)-dione trihydrochloride] | 0.273 | 0.188 | 2.08 | 0.039
COc1cccc2c1[C@@H]1CN(CCCCn3c(=O)[nH]c4c(sc5nccnc54)c3=O)C[C@@H]1CO2 [Example 15, 3-[4-((3aR,9bR)-cis-9-Methoxy-1,2,3,3a,4,9b-hexahydro-[1]-benzopyrano[3,4-c]pyrrol-2-yl)butyl]-pyrazino[2',3':4,5]thieno[3,2-d]pyrimidine-2,4(1H,3H)-dione dihydrochloride] | 0.227 | 0.068 | 4.41 | 0.928
3-[2-((±)-trans-10-Methoxy-1,3,4,4a,5,10b-hexahydro-2H-[1]-benzopyrano[3,4-c]pyrido-3-yl)ethyl]-6,7-dimethoxy-quinazoline-2,4(1H,3H)-dione hydrochloride [Example 91] | 0.102 | 0.066 | 1.46 | 0.495
COc1cccc2c1[C@@H]1CN(CCCCn3c(=O)[nH]c4c(sc5ncc(-c6ccsc6)nc54)c3=O)C[C@H]1CO2 [Example 59, 3-[4-((3aS,9bR)-trans-9-Methoxy-1,2,3,3a,4,9b-hexahydro-[1]-benzopyrano[3,4-c]pyrrol-2-yl)butyl]-8-(3-thienyl)-pyrazino[2',3':4,5]thieno[3,2-d]pyrimidine-2,4(1H,3H)-dione dihydrochloride] | 0.166 | 0.049 | 6.74 | 0.257
COc1cccc2c1[C@H]1CCN(CCCCn3c(=O)[nH]c4c(sc5cccnc54)c3=O)C[C@@H]1CO2 [Example 94, 3-[4-((4aR,10bS)-trans-10-Methoxy-1,3,4,4a,5,10b-hexahydro-2H-[1]-benzopyrano[3,4-c]pyrido-3-yl)butyl]-pyrido[2',3':4,5]thieno[3,2-d]pyrimidine-2,4(1H,3H)-dione dihydrochloride] | 0.185 | 0.097 | 1.97 | 0.361
COc1ccc(O)c2c1[C@@H]1CN(CCCCn3c(=O)[nH]c4c(sc5ncc(-c6ccccc6)nc54)c3=O)C[C@@H]1CO2 [Example 105, 3-[4-((3aR,9bR)-cis-6-Hydroxy-9-methoxy-1,2,3,3a,4,9b-hexahydro-[1]-benzopyrano[3,4-c]pyrrol-2-yl)butyl]-8-phenyl-pyrazino[2',3':4,5]thieno[3,2-d]pyrimidine-2,4(1H,3H)-dione] | 26.3 | 6.42 | 1620 | 55.9
